Laboratory results reported in US20160287536A1, “Composition” (THE UNIVERSITY OF NOTTINGHAM, priority 2013, published 2016).
Where two headings read alike, the source gives them in different places. Each block holds one compound with its values, some of them ahead of it.

Tests used:
nitric oxide synthase = conditions: 100 μM; cited from earlier work
vascular preparations = conditions: 100 μM; cited from earlier work
[1] = test system: sheep isolated rectal vein; experiment: Wire myography, sheep isolated rectal vein (SRV); type: cell-based; conditions: SRV
Protocol: Sheep mesenteric tissue, from the distal sigmoid colon to the anus, was obtained from a local abattoir. The sheep tissue was delivered in a dry bag and stored at 4° C. until dissected. The bundle of sheep rectal vessels was dissected from its mesentery within four hours of arrival from the abattoir. The vascular bundle was then kept in the pre-oxygenated Krebs-Henseleit buffer solution at 4° C. until used (on the same day as a preferential method or on the following day after storage overnight). No experiments were conducted on tissue stored for more than 24 hours after dissection. The Krebs solution consisted of 118.4 mM NaCl, 4.7 mM KCl, 1.2 mM MgSO4, 1.2 mM KH2PO4, 1.25 mM CaCl2, 24.9 mM NaHCO3, and 11.1 mM glucose.
Before setting a wire myography experiment, the remaining loose connective tissue was meticulously removed from the rectal vessels. The internal diameter of sheep isolated rectal artery and vein was 450-650 μm and 500-1000 μm, respectively. Each 5-mm ring segment of the ‘clean’ vessels was then suspended between two 200-μm wire supports in an organ bath containing 20 ml Krebs-Henseleit buffer solution. The upper supporting wire was attached to an isometric force transducer, while the lower wire was fixed steadily to a clamped glass rod. The bath solution was maintained at 37° C., and continuously gassed with 95% O2 and 5% CO2. Isometric tension was continuously recorded using a PowerLab 4/25 via QUAD Bridge amplifier (ADInstruments, Inc, Australia).
After a 10-minute equilibration period, an initial tension of 8 gram weight (g wt) was gradually applied for an arterial segment and left to relax for 30 minutes. The final tension of SRA varied between 1.0 g wt and 2.8 g wt. For a venous segment, an initial tension of 1 g wt was applied and, 10 minutes later, the resting tension was finally re-adjusted to reach a tension of 0.5 g wt. Then the vein was left to relax for further 20 minutes. The final tension of SRV ranged from 0.08 to 0.25 g wt. Once the vascular segments were fully settled, the tissues were tested for contractile activity with 60 mM KCl on three occasions. The vascular contraction was allowed to reach maximum, which generally took about 1-4 minutes. Each KCl challenge was followed by two washouts of 37° C. Krebs solution and the tissues were allowed to rest for 20 minutes between the challenges. The maximum contraction (tension) produced by the third administration of 60 mM KCl was used as a reference contraction to which subsequent responses were compared. After the final (3rd) KCl challenge, the tissues were washed and left for 60 minutes before α-adrenoceptor agonist was administrated. To construct an agonist concentration-response curves (CRC), 0.3-0.4 log 10 increments of agonist solution was added e.g. at the agonist concentration of 100 nM, 200 nM, 500 nM, 1 μM, 2 μM, 5 μM, and so on. Each response was allowed to reach equilibrium or plateau before the next dose of agonist was added. The maximal response to the agonist was considered when no further increase in response occurred upon the addition of two or more consecutive doses of agonist.
In the case of the noradrenaline study, 10 μM cocaine was added into the organ bath 40 minutes prior to the administration of noradrenaline for inhibiting the uptake of noradrenaline by neural tissue within the vascular wall (re-uptake 1) (Westfall & Westfall, 2006 In Goodman & Gilman's the Pharmacological Basis of Therapeutics. eds Brunton, L. L., Lazo, J. S. & Paker, K. L. pp. 137-181. New York: McGraw Hill). Regarding KCl-induced vasoconstriction, the CRC was generated by the contractile response to 6 mM increments of KCl solution, starting from 0 mM to 60 mM.
Consecutive CRCs were generated to each agonist, separated by 60 minutes, and if there was no difference in the maximum response (Emax) and pEC50 (defined as the negative logarithm of the concentration required to produce 50% of the maximum response) then a paired CRC protocol was used throughout. […]

[2] = test system: porcine isolated tail artery
Protocol: U46619 was added to produce a contraction equivalent to 60% of KCl followed by sufficient to forskolin to causes a relaxation back to baseline. Cumulative concentration response curves to brimondine and phenylephrine were elicited in the presence and absence of the combination of U4/For. Responses have been expressed a percent of the contraction to 60 mM KCl and represent the mean of 5-6 separate observations.

α2-adrenoceptor [3] = experiment: Saturation radioligand binding of [^3H]-RX821002 to sheep anorectal tissue membranes
Protocol: Fresh sheep anorectal tissues were dissected from whole buttock from sheep within four hours of slaughter. The buttocks were delivered in a dry bag and stored at 4° C. until dissected. The tissues used in this experiment included rectal smooth muscle (RSM), rectal mucosa (RM), anal mucosa (AM), internal anal sphincter (IAS), sheep rectal artery (SRA), sheep rectal vein (SRV), and the terminal branches of rectal vessels (TB). The dissected tissues were kept at −20° C. until used. Prior to starting an experiment, the tissue was removed from the freezer and allowed to defrost on ice. […] Non-specific binding was determined using an excessive amount of unlabelled specific receptor ligand. […] Three ml of scintillation fluid (PerkinElmer, UK) was subsequently added into each vial, and left at least 8 hours (preferably overnight) before processing for radioactivity measurement. The amount of radioactivity bound to the filters was measured using a liquid scintillation analyser (Tri-Carb 2100TR, PerkinElmer, UK). The radioactivity was reported as disintegrations per minute (dpm). […] Specific binding of the radioligand to the membranes was calculated by subtracting the non-specific binding from the total binding. Receptor density (Bmax) and ligand dissociation constant (Kd) were then calculated using the specific saturation binding curve of each experiment.

α2-adrenoceptor [4] = conditions: porcine vessels; cited from earlier work

Structure (SMILES): CN(C)C(N)=NCCC[C@H](N)C(=O)O [ADMA, Asymmetric dimethyl arginine]
inhibition of nitric oxide synthase (nitric oxide synthase): inhibit nitric oxide synthase
effect on vasoconstrictor responses to phenylephrine (vascular preparations): enhance the vasoconstrictor responses to phenylephrine

Structure (SMILES): Brc1c(NC2=NCCN2)ccc2nccnc12 [UK14304, brimonidine]
contractile response [1]: concentration-dependent contractions
veins with concentration-dependent contraction ([1]; the rest <10% of the response to 60 mM KCl): 6 out of 12
contractile responses in the presence of the combination of U46619 and forskolin [2]: enhanced

Kd (α2-adrenoceptor [3]; sheep rectal arteries, read-out: Kd of radioligand for α2-adrenoceptor): 1.42 nM
Kd (α2-adrenoceptor [3]; sheep rectal vein and terminal branches of sheep rectal vessels, read-out: Kd of α2-adrenoceptor): ~0.3 nM
Structure (SMILES): COC1(C2=NCCN2)COc2ccccc2O1 (centres unmarked) [[^3H]-RX821002, 2-(2-methoxy-1,4-benzodioxan-2-yl)-2-imidazoline]
Kd (α2-adrenoceptor [4]): 1.3 to 2.2 nM
